Experimental data as given in patent US11542233B2, “Compounds, compositions and methods of use” (Aquinnah Pharmaceuticals, Inc., priority 2016, dated 2023).

Tested on: TDP-43 aggregation in PC12 cells stably expressing GFP-tagged mutant TDP-43 (TDP-43^Q33IK::eGFP)
Experiment: In vitro efficacy assay: inhibition of TDP-43 inclusions, concentration-response, fluorescence microscopy
Assay type: cell-based
Conditions: Rattus norvegicus, PC-12, PC12 cells, 1 hour pre-treatment, 15 μM sodium arsenite for 23 hours, 10-point dose response curve
Outline: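 PC12 cells stably expressing TDP-43^Q33IK::eGFP pre-treated 1 h with compound, then stressed with 15 μM sodium arsenite for 23 h. Fluorescence microscopy gave the fraction of GFP-positive cells bearing aggregates; IC50 from concentration-response, reported in bins: A <100 nM, B 100–500 nM, C 500 nM–2 μM, D >2 μM.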

Compound | IC50 [nM]
CCN(C(=O)c1nc2ccccc2[nH]1)[C@H]1CCC[C@@H](NCc2oc3ccccc3c2C)C1 [Compound 476] | < 100
CCN(C(=O)c1nc2ccccc2[nH]1)[C@H]1CCC[C@@H](NCc2cccc(OC)c2)C1 [Compound 477] | < 100
CCN(C(=O)c1nc2ccccc2[nH]1)[C@H]1CCC[C@@H](NCc2cc3ccccc3o2)C1 [Compound 479] | < 100
CCN(C(=O)c1nc2ccccc2[nH]1)[C@H]1CCC[C@@H](NCc2cccc(F)c2)C1 [Compound 480] | < 100
CCN(C(=O)c1nc2c(C#N)cccc2[nH]1)[C@H]1CCC[C@@H](NCc2ccccc2)C1 [Compound 481, N-((1S,3R)-3-(benzylamino)cyclohexyl)-4-cyano-N-ethyl-1H-benzo[d]imidazole-2-carboxamide] | < 100
CCN(C(=O)c1nc2ccccc2[nH]1)[C@H]1CCC[C@@H](NCc2ccc3ncoc3c2)C1 [Compound 487, N-((1S,3R)-3-((benzo[d]oxazol-6-ylmethyl)amino)cyclohexyl)-N-ethyl-1H-benzo[d]imidazole-2-carboxamide] | < 100
CCN(C(=O)c1nc2ccccc2[nH]1)[C@H]1CCC[C@@H](NCc2nc3ccccc3s2)C1 [Compound 488] | < 100
CCN(C(=O)c1nc2ccccc2[nH]1)[C@H]1CCC[C@@H](NCc2ccc3ocnc3c2)C1 [Compound 489] | < 100
CCN(C(=O)c1nc2ccccc2[nH]1)[C@H]1CCC[C@@H](NCc2cc3ccccc3s2)C1 [Compound 490] | < 100
CCN(C(=O)c1nc2ccccc2[nH]1)[C@H]1CCC[C@@H](NCc2cc3ncccc3o2)C1 [Compound 491] | < 100
CCN(C(=O)c1nc2ccccc2[nH]1)[C@H]1CCC[C@@H](NCc2ccc3cncn3c2)C1 [Compound 492] | < 100
CCN(C(=O)c1nc2ccccc2[nH]1)[C@H]1CCC[C@@H](NCc2cc3ccccn3c2)C1 [Compound 493] | < 100
CCN(C(=O)c1nc2ccccc2[nH]1)[C@H]1CCC[C@@H](NCc2cc(C3CC3)no2)C1 [Compound 495, N-((1S,3R)-3-(((3-cyclopropylisoxazol-5-yl)methyl)amino)cyclohexyl)-N-ethyl-1H-benzo[d]imidazole-2-carboxamide] | < 100
CCN(C(=O)c1nc2ccccc2[nH]1)[C@H]1CCC[C@@H](NCc2oc3ccccc3c2C#N)C1 [Compound 497] | < 100
CCN(C(=O)c1cc2ccccc2[nH]1)[C@H]1CCC[C@@H](Nc2nnc(C)s2)C1 [Compound 500] | > 2000
CCN(C(=O)c1cc2c([nH]1)CCOC2)[C@H]1CCC[C@@H](NCc2ccccc2)C1 [Compound 503] | 100 to 500
CCN(C(=O)c1cc2ccccc2[nH]1)[C@H]1COC[C@@H](N[C@@H]2CCc3ccccc32)C1 [Compound 504, N-((3R,5S)-5-(((R)-2,3-dihydro-1H-inden-1-yl)amino)tetrahydro-2H-pyran-3-yl)-N-ethyl-1H-indole-2-carboxamide] | < 100
CCN(C(=O)c1cc2ccccc2[nH]1)[C@@H]1COC[C@@H](N[C@@H]2CCc3ccccc32)C1 [Compound 507, N-((3S,5S)-5-(((R)-2,3-dihydro-1H-inden-1-yl)amino)tetrahydro-2H-pyran-3-yl)-N-ethyl-1H-indole-2-carboxamide] | > 2000
CCN(C(=O)c1cc2ccccc2[nH]1)C1COC[C@@H](N[C@H]2CCc3ccccc32)C1 (stereo partly drawn) [Compound 508] | > 2000
CCN(C(=O)c1cc2ccccc2[nH]1)C1CCC[C@H](N[C@H]2CCc3ccccc32)C1 (stereo partly drawn) [Compound 509] | > 2000
CCN(C(=O)c1cc2c([nH]1)CCCO2)[C@H]1CCC[C@@H](NCc2ccccc2)C1 [Compound 511, N-((1S,3R)-3-(benzylamino)cyclohexyl)-N-ethyl-1,5,6,7-tetrahydropyrano[3,2-b]pyrrole-2-carboxamide] | 100 to 500
CCN(C(=O)c1nc2ccccc2[nH]1)[C@H]1CCC[C@@H](NCc2nnc(C3CC3)o2)C1 [Compound 513, N-((1S,3R)-3-(((5-cyclopropyl-1,3,4-oxadiazol-2-yl)methyl)amino)cyclohexyl)-N-ethyl-1H-benzo[d]imidazole-2-carboxamide] | 100 to 500
CCN(C(=O)c1nc2cc(C#N)ccc2[nH]1)[C@H]1CCC[C@@H](NCc2cccc(F)c2)C1 [Compound 516, 5-cyano-N-ethyl-N-((1S,3R)-3-((3-fluorobenzyl)amino)cyclohexyl)-1H-benzo[d]imidazole-2-carboxamide] | < 100
CCN(C(=O)c1nc2cc(C#N)ccc2[nH]1)[C@H]1CCC[C@@H](NCc2oc3ccccc3c2C)C1 [Compound 518] | < 100
CCN(C(=O)c1nc2cc(C#N)ccc2[nH]1)[C@H]1CCC[C@@H](NCc2ccc(F)cc2)C1 [Compound 519] | < 100
CCN(C(=O)c1nc2cc(C#N)ccc2[nH]1)[C@H]1CCC[C@@H](NCc2oc3ccccc3c2C#N)C1 [Compound 520] | < 100
CCN(C(=O)c1nc2cc(F)ccc2[nH]1)[C@H]1CCC[C@@H](NCc2oc3ccccc3c2C)C1 [Compound 524] | < 100
CCN(C(=O)c1nc2cc(F)ccc2[nH]1)[C@H]1CCC[C@@H](NCc2cccc(F)c2)C1 [Compound 525] | < 100
CCN(C(=O)c1nc2cc(F)ccc2[nH]1)[C@H]1CCC[C@@H](NCc2ccc(F)cc2)C1 [Compound 526] | < 100

Results, then the compound that gave them:

IC50 [nM] | Compound
< 100 | CCN(C(=O)c1nc2ccccc2[nH]1)[C@H]1CCC[C@@H](NCc2ccc(F)cc2)C1 [Compound 475]
< 100 | CCN(C(=O)c1nc2ccccc2[nH]1)[C@H]1CCC[C@@H](NCc2cc3cc(F)ccc3o2)C1 [Compound 478]
< 100 | CCN(C(=O)c1nc2c(F)cccc2[nH]1)[C@H]1CCC[C@@H](NCc2ccccc2)C1 [Compound 482]
< 100 | CCN(C(=O)c1nc2cc(F)ccc2[nH]1)[C@H]1CCC[C@@H](NCc2ccccc2)C1 [Compound 483]
< 100 | CCN(C(=O)c1nc2c(OC)cccc2[nH]1)[C@H]1CCC[C@@H](NCc2ccccc2)C1 [Compound 484]
< 100 | CCN(C(=O)c1nc2cc(C#N)ccc2[nH]1)[C@H]1CCC[C@@H](NCc2ccccc2)C1 [Compound 485]
100 to 500 | CCN(C(=O)c1cc2ncncc2[nH]1)[C@H]1CCC[C@@H](NCc2ccccc2)C1 [Compound 486]
< 100 | CCN(C(=O)c1nc2ccccc2[nH]1)[C@H]1CCC[C@@H](NCc2cn3ccccc3n2)C1 [Compound 494, N-ethyl-N-((1S,3R)-3-((imidazo[1,2-a]pyridin-2-ylmethyl)amino)cyclohexyl)-1H-benzo[d]imidazole-2-carboxamide]
< 100 | CCN(C(=O)c1cc2ccccc2[nH]1)[C@H]1CCC[C@@H](NCc2oc3ccccc3c2C#N)C1 [Compound 496]
< 100 | CCN(C(=O)c1cc2c(OC)cccc2[nH]1)[C@H]1CCC[C@@H](NCc2oc3ccccc3c2C#N)C1 [Compound 498]
> 2000 | CCN(C(=O)c1cc2ccccc2[nH]1)[C@H]1CCC[C@@H](Nc2nnc(C3CC3)s2)C1 [Compound 499, N-((1S,3R)-3-((5-cyclopropyl-1,3,4-thiadiazol-2-yl)amino)cyclohexyl)-N-ethyl-1H-indole-2-carboxamide]
> 2000 | CCN(C(=O)c1cc2ncccc2[nH]1)[C@H]1CCC[C@@H](Nc2ccccc2)C1 [Compound 501]
500 to 2000 | CCN(C(=O)c1cc2c([nH]1)CC(C)(C)OC2)[C@H]1CCC[C@@H](NCc2ccccc2)C1 [Compound 502, N-((1S,3R)-3-(benzylamino)cyclohexyl)-N-ethyl-6,6-dimethyl-1,4,6,7-tetrahydropyrano[4,3-b]pyrrole-2-carboxamide]
> 2000 | CCN(C(=O)c1cc2ccccc2[nH]1)[C@@H]1COC[C@H](N[C@@H]2CCc3ccccc32)C1 [Compound 505, N-((3S,5R)-5-(((R)-2,3-dihydro-1H-inden-1-yl)amino)tetrahydro-2H-pyran-3-yl)-N-ethyl-1H-indole-2-carboxamide]
500 to 2000 | CCN(C(=O)c1cc2ccccc2[nH]1)[C@H]1COC[C@H](N[C@@H]2CCc3ccccc32)C1 [Compound 506, N-((3R,5R)-5-(((R)-2,3-dihydro-1H-inden-1-yl)amino)tetrahydro-2H-pyran-3-yl)-N-ethyl-1H-indole-2-carboxamide]
100 to 500 | CCN(C(=O)c1cc2c([nH]1)CCCS2(=O)=O)[C@H]1CCC[C@@H](NCc2ccccc2)C1 [Compound 512, N-((1S,3R)-3-(benzylamino)cyclohexyl)-N-ethyl-1,5,6,7-tetrahydrothiopyrano[3,2-b]pyrrole-2-carboxamide 4,4-dioxide]
< 100 | CCN(C(=O)c1nc2ccccc2[nH]1)[C@H]1CCC[C@@H](NCc2ccc3cccn3c2)C1 [Compound 514, N-ethyl-N-((1S,3R)-3-((indolizin-6-ylmethyl)amino)cyclohexyl)-1H-benzo[d]imidazole-2-carboxamide]
< 100 | CCN(C(=O)c1nc2ccccc2[nH]1)[C@H]1CCC[C@@H](NCc2cc(C3CC3)on2)C1 [Compound 515, N-((1S,3R)-3-(((5-cyclopropylisoxazol-3-yl)methyl)amino)cyclohexyl)-N-ethyl-1H-benzo[d]imidazole-2-carboxamide]
< 100 | CCN(C(=O)c1nc2cc(C#N)ccc2[nH]1)[C@H]1CCC[C@@H](NCc2cc3ccccc3o2)C1 [Compound 517]
< 100 | [2H]C([2H])(N[C@@H]1CCC[C@H](N(CC)C(=O)c2cc3ccccc3[nH]2)C1)c1ccccc1 [Compound 521, N-ethyl-N-((1S,3R)-3-((phenylmethyl-d2)amino)cyclohexyl)-1H-indole-2-carboxamide]
< 100 | [2H]C([2H])(N[C@@H]1CCC[C@H](N(CC)C(=O)c2nc3ccccc3[nH]2)C1)c1ccccc1 [Compound 522, N-ethyl-N-((1S,3R)-3-((phenylmethyl-d2)amino)cyclohexyl)-1H-benzo[d]imidazole-2-carboxamide]
< 100 | CCN(C(=O)c1nc2cc(F)ccc2[nH]1)[C@H]1CCC[C@@H](NCc2cc3ccccc3o2)C1 [Compound 523]
